The source of these data is patent US10895019B2, “Encoded self-assembling chemical libraries (ESACHEL)” (Eidgenoessische Technische Hochschule Zurich, priority 2002, dated 2021).

For one test, the target named is human carbonic anhydrase. The test is described as follows: carbonic anhydrase activity assay with substrate 4-Nitrophenylacetate (Pocker and Stone). It counts as biochemical. The note with it: absorption at 400 nm, read-out: IC50 towards human carbonic anhydrase. As for the experimental part:
We measured the inhibitory concentration 50 [IC50] of 4-sulfonamido benzoic acid propylamide using an activity assay described by Pocker and Stone [(1967), Biochemistry 6, 668-678]. In short, we incubated carbonic anhydrase in separate wells of a transparent 96 well microtiter plate with different concentrations of the inhibitor and the substrate 4-Nitrophenylacetate. The proceeding of the reaction was monitored at the increase of absorption at 400 nm due to formation of the product 4-nitrophenol.

In a further test the target is streptavidin (Streptomyces avidinii, UniProt P22629). The following applies: Green (1966); cited from earlier work.

pIC50: −log10 of the molar value.

Sequence of streptavidin (P22629 25-183): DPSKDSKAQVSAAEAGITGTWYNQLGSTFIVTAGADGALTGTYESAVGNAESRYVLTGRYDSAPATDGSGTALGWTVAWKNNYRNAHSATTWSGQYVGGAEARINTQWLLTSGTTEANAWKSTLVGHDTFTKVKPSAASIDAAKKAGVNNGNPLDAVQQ

For orientation: pIC50 means the negative decadic logarithm of the IC50, by convention in mol/L. Regarding `CCCNC(=O)c1ccc(S(N)(=O)=O)cc1` [4-sulfonamido benzoic acid propylamide], the pIC50 on human carbonic anhydrase is 5.22.
With `N=C1N[C@H]2[C@H](CS[C@H]2CCCCC(=O)O)N1` [Iminobiotin], the “affinity to streptavidin relative to biotin” value on streptavidin is listed as “substantially reduced affinity”.
